Values of other authors, collected in PMC6574176 (Biomaterials, 2019).

Conditions: rapidly bio-eliminated

For CC1(C)C(/C=C/C=C/C=C/C=C2\N(CCCCS(=O)(=O)O)c3ccc4ccccc4c3C2(C)C)=[N+](CCCCS(=O)(=O)[O-])c2ccc3ccccc3c21 [free ICG, Indocyanine Green], the “t1/2 of free ICG” value is given as 2 to 4 min.
